Drawing on ChEMBL document CHEMBL1201862, “PubChem BioAssay data set” (2004), this text covers IC50 for two compounds.

Activity calls are given as the source filed them. Cut-off read from the data, not from the text of the source, for most assays here: actives have a measured IC50 and inactives only a lower limit.

Holding throughout (format): functional
Test [1] has as its target 26S proteasome non-ATPase regulatory subunit 14 (Homo sapiens, UniProt O00487). Nature of the test: inhibition of proteasome subunit RPN11 – biochemical, fluorescence polarization, uHTS hits, confirmation (AID 602368). On the technique in general: Fluorescence polarisation rises when a labelled molecule tumbles more slowly, as on binding a larger partner.
Another test concerns the target T1, Caspase-3 (Homo sapiens, UniProt P42574).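 Note: Dose-response selectivity test against caspase-3 for candidate inhibitors of sentrin-specific proteases (SENPs).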
T1 sequence (P42574 whole entry): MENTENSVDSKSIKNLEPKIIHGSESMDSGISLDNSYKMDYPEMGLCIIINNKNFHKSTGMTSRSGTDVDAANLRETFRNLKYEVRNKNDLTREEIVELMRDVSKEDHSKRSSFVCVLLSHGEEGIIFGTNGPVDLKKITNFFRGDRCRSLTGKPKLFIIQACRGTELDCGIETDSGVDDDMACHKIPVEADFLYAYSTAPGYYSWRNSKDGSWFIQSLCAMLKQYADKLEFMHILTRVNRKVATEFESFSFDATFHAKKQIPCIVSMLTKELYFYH

The target in test [2] is T2, Sentrin-specific protease 6 (Homo sapiens, UniProt Q9GZR1).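 Note: Luminescence-based dose-response confirmatory assay of SENP6 inhibition, following up an ultra-high-throughput screen.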
T2 sequence (Q9GZR1 whole entry): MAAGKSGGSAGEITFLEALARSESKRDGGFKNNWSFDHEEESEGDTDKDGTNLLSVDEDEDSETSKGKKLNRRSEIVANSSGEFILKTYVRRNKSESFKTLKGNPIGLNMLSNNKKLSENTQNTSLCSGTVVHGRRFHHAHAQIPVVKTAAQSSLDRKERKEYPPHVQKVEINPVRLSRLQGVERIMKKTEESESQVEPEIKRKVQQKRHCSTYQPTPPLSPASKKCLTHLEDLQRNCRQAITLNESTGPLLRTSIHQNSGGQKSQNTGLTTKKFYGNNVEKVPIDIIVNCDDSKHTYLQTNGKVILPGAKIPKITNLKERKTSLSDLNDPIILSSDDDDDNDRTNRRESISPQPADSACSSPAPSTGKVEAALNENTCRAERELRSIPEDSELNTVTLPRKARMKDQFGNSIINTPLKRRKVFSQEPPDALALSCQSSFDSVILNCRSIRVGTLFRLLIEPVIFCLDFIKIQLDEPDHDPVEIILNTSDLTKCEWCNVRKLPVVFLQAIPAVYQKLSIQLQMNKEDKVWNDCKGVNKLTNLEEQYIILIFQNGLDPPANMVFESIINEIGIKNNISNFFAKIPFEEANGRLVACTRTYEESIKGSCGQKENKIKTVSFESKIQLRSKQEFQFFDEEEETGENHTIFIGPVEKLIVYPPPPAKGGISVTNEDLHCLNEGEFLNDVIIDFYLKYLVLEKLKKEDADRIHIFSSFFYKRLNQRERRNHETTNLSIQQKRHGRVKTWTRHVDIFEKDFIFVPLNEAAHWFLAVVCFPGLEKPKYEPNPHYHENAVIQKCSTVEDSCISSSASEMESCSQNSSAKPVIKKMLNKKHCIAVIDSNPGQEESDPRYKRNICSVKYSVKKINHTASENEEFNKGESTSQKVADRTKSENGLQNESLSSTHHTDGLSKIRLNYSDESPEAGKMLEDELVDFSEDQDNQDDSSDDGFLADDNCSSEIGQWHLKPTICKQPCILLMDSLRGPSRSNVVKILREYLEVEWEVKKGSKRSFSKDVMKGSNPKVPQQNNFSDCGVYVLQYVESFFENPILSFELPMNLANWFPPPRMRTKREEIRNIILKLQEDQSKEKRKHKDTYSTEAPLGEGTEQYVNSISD

Test [3] concerns the target T3, Apoptotic protease-activating factor 1 (Homo sapiens, UniProt O14727).
T3 sequence (O14727 whole entry): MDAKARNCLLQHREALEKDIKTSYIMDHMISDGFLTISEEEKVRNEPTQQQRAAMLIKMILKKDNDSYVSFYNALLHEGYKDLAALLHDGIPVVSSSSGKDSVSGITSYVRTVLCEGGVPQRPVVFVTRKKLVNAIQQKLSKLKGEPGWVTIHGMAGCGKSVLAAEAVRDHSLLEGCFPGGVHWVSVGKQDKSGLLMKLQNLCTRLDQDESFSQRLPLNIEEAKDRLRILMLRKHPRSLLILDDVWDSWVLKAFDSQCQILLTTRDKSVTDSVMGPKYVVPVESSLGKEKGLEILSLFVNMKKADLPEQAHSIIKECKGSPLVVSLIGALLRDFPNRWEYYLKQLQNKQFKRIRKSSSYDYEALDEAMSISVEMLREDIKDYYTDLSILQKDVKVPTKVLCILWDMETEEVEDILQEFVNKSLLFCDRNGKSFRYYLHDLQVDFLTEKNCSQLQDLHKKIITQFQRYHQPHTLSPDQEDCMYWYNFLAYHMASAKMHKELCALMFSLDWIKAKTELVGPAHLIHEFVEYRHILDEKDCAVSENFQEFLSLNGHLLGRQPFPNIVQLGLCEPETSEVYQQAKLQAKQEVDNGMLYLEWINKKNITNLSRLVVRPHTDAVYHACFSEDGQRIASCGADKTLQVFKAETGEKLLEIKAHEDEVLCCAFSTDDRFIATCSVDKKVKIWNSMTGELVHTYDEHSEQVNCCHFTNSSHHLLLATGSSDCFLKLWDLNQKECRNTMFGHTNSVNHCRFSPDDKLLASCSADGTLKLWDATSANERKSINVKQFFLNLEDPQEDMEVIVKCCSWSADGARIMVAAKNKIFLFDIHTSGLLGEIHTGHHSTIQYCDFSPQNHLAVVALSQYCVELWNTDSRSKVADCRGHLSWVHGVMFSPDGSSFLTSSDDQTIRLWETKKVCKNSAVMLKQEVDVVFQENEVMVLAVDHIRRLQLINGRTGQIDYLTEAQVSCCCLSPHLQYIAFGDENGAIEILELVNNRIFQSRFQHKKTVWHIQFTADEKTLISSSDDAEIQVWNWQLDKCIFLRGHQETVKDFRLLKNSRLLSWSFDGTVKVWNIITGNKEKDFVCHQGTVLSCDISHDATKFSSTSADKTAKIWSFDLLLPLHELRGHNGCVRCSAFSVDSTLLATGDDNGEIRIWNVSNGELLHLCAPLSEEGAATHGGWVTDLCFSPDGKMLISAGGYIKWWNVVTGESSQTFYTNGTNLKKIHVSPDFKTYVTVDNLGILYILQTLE

Chain of 26S proteasome non-ATPase regulatory subunit 14 (O00487 whole entry): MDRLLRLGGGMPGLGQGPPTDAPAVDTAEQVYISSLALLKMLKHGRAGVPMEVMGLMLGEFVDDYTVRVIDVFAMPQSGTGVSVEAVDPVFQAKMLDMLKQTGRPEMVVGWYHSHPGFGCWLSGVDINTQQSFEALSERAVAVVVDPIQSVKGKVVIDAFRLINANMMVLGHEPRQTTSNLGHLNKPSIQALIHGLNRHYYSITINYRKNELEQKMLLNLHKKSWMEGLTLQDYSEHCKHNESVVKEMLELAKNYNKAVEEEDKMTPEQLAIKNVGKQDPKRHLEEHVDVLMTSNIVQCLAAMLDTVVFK

Take `O=[N+]([O-])c1ccc(N/N=C/c2ccc[nH]2)cc1`: the IC50 in test [1] was 8.96 µM (active).

With `CC(=O)N(/N=C1\Sc2ccccc2C1=O)c1cccc(C)c1`, the results for the IC50 (on Caspase-3; in test [2]; in test [3]) were 65.8 µM (active), 6.06 µM (active) and 4.46 µM (active), respectively.

One may read the IC50 as the concentration that gives 50% inhibition.
